From US20240132517A1, “MACROCYCLIC COMPOUND, PHARMACEUTICAL COMPOSITION, AND USE THEREOF” (GOHARMONY THERAPEUTICS (SHENZHEN) CO., LTD., priority 2021, published 2024)

Tests used:
c-Met = c-Met (Homo sapiens (Human), UniProt P08581); assay: Enzymatic inhibitory activity, mobility shift assay, c-Met; format: biochemical; conditions: kinase mobility shift assay
Excerpt: (§1) Compounds against MET, SRC and CSF1R kinases were screened by use of mobility shift assay. The core of this screening platform was the MSA based on microfluidic chip technology, which applied the basic idea of capillary electrophoresis to a microfluidic environment. The substrate used in the experiment was a polypeptide with fluorescent labeling. Under the catalysis of the enzyme in the reaction system, the substrate was converted into a product, and it carried charge also changed accordingly. MSA utilized the difference in charge between the substrate and the product to separate them, and detect them separately.
(§2) The operation method is briefly described as follows:
(§3) The powders of the compound were dissolved in 100% DMSO to make a 10 mM stock solution. The initial test concentration of the compound was 10,000 nM, 3-fold serial dilution, 10 concentrations, and repeated hole detection. […] A stop detection solution was added to stop the enzymatic reaction, and the conversion rate was read with Caliper EZ Reader II.
(§4) wherein: Conversion%_sample is the conversion rate reading of the sample; Conversion%_min: the average value of the negative control wells, representing the conversion rate readings of the wells without enzyme activity; Conversion%_max: the average ratio of the positive control wells, representing the conversion rate readings of the wells without compound inhibition.
(§5) Dose-response curve fitting: with the log value of the concentration as the X-axis, and the percentage inhibition rate as the Y-axis, the log(inhibitor) vs. response-Variable slope of the analysis software GraphPad Prism 5 was used to fit the dose-response curve, thereby obtaining IC50 values of each compound against inhibition of enzyme activity.

CSF1R = CSF1R (Homo sapiens (Human), UniProt P07333); assay: Enzymatic inhibitory activity, mobility shift assay, CSF1R; format: biochemical; conditions: kinase mobility shift assay
Chain of CSF1R (P07333 20-972): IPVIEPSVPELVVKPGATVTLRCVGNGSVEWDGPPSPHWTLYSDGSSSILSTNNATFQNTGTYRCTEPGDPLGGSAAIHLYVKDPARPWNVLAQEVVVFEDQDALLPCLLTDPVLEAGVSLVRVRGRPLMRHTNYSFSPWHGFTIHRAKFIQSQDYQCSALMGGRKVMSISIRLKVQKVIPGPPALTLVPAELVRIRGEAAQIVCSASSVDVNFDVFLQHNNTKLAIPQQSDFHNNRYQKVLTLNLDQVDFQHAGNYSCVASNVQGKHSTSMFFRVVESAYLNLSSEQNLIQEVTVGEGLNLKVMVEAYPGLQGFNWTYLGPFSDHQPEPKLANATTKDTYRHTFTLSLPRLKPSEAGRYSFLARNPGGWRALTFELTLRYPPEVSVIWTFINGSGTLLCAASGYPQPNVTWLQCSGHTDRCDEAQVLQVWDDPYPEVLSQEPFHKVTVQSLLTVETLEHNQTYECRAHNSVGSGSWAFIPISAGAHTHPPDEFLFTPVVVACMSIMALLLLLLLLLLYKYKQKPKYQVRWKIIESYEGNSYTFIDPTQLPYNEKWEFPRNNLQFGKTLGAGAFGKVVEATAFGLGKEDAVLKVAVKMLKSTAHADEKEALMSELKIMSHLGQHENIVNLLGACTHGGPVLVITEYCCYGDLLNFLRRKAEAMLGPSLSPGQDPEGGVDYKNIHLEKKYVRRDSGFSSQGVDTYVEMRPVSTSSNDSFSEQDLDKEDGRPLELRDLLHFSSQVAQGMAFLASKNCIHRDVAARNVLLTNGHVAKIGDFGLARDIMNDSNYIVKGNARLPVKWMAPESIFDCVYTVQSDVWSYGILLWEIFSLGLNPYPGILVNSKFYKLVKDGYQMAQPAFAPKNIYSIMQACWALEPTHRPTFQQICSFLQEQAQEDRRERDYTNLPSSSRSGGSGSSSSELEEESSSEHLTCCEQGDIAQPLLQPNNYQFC
Excerpt: as §1, §2, §3, §4, §5

SNU-5 cells = assay: Cell viability assay against SNU-5 cells (CellTiter-Glo); format: cell-based; conditions: Homo sapiens, 72 hours
Experimental: Human gastric cancer cell line SNU-5 culture medium was IMDM basal culture medium supplemented with 10% FBS (fetal bovine serum) and 1% P/S (penicillin/streptomycin), Ba/F3-TEL-CSF1R stably transfected cell line medium was RPMI-1640 medium supplemented with 10% FBS and 1% P/S. Both cell lines were cultured in a carbon dioxide incubator at 37° C. with a CO2 concentration of 5%.
(§6) In the assay of compounds, SNU-5 and Ba/F3-TEL-CSF1R cells were plated in 96-well cell culture plates (Corning, Cat# 3610) at a concentration of 3000 cells/100 μL per well, and cultured overnight. Starting from 200 μM, the compound was subjected to a 3-fold gradient with DMSO, and a total of 9 concentrations were diluted to prepare a 200-fold drug solution. 3 μl of the 200-fold concentration compound was diluted with 197 μl of complete medium to obtain a 3-fold concentration compound. 50 μl of the latter was took and added to the cell well plate, and culture was continued for 72 hours. The cell culture plate was equilibrated to room temperature before assay, and 40 μL of CellTiter-Glo (Promega, Cat# G7571) was added to each well, and the cells were lysed by shaking for two minutes. The cell plate was then left at room temperature for 60 minutes to stabilize the luminescence signal. Luminescence values were read using a PerkinElemer Envision multifunctional plate reader.
(§7) Data analysis: • Luminescence values were processed using the following formula:
(§8) %Inh=(Max signal−Compound signal)/(Max signal−Min signal)×100 • Max signal: value of a DMSO treatment group; • Min signal: value of a blank medium group.
(§9) The processed data were analyzed using GraphPad Prism 5.0 software, and nonlinear S-curve regression was used to fit the data to derive dose-response curves from which IC50 values were calculated.

Ba/F3-TEL-CSF1R = assay: Cell viability assay against Ba/F3-TEL-CSF1R cells (CellTiter-Glo); format: cell-based; conditions: 72 hours, read-out: Baf3-TEL CSF1R IC50
Experimental: as §6, with “Starting” for “In the assay of compounds, SNU-5 and Ba/F3-TEL-CSF1R cells were plated in 96-well cell culture plates (Corning, Cat# 3610) at a concentration of 3000 cells/100 μL per well, and cultured overnight. Starting”
as §7, §8, §9

[1] = Pharmacokinetic experiments in rats; format: in vivo; conditions: male SD rats, 1 mg/kg, oral gavage and intravenous injection
Experimental: Male SD rats were divided into groups, 3 rats in each group, and the compound of the Examples (1 mg/kg) was given by oral, single gavage and intravenous injection, respectively. The animals were fasted overnight before the experiments, and the fasting time was from 10 hours before administration to 4 hours after administration. Blood was collected at 0.25, 0.5, 1, 2, 4, 8 and 24 hours after administration in the oral group, and at 0.083, 0.25, 0.5, 1, 2, 4, 8 and 24 hours after injection in the intravenous injection group. After anesthesia with isoflurane using a small animal anesthesia machine, 0.3 mL of whole blood was collected through the fundus venous plexus and placed in a heparin anticoagulant tube. The sample was centrifuged at 4° C.and 4000 rpm for 5 minutes, the plasma was transferred to a centrifuge tube, and placed at […] and stored until analysis. Plasma samples were extracted by protein precipitation, and the extract was analyzed by LC/MS/MS.

SRC = SRC (Homo sapiens (Human), UniProt P12931); assay: Enzymatic inhibitory activity, mobility shift assay, SRC; conditions: read-out: SRC IC50; kinase mobility shift assay
Chain of SRC (P12931 whole entry, looked up): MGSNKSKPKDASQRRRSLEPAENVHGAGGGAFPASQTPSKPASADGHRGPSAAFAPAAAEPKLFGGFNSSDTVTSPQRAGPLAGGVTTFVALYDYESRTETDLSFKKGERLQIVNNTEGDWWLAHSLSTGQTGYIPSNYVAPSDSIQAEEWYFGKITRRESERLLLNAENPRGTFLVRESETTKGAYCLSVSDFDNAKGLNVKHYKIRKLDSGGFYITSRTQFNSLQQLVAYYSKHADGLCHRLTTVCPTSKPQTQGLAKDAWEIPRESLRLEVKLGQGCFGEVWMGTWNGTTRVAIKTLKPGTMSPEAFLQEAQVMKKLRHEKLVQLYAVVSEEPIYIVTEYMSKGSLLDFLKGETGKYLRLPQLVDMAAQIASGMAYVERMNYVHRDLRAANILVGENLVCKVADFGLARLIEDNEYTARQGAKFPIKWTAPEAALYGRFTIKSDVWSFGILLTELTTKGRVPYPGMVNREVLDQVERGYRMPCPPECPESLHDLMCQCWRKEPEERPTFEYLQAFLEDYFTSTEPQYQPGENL
Experimental: The powders of the compound were dissolved in 100% DMSO to make a 10 mM stock solution. […] A stop detection solution was added to stop the enzymatic reaction, and the conversion rate was read with Caliper EZ Reader II.

HCC827 cells = assay: Cell viability assay against HCC827 cells (CellTiter-Glo); format: cell-based, human; conditions: 72 hours
Experimental: Human non-small cell lung cancer cells, HCC827 cells, were cultured in an incubator (37° C., 5% CO2) with 1640 medium plus 10% FBS (fetal bovine serum) and 1% P/S (penicillin/streptomycin). In the assay of the compound, the HCC827 cells were plated in a 96-well transparent flat-bottomed black wall plate (Corning, Cat# 3603) at a concentration of 3000 cells/90 uL per well, and the compound was diluted 11 times in a 3-fold gradient starting from 10 mM, and prepared a 10-fold drug solution. Then 10 μL was taken and added to 90 μL of cell culture medium (DMSO final concentration was 0.1%, v/v). After 72 hours of treatment, 100 μL of CellTiter-Glo (Promega, Cat#G7572) was added, cells were lysed by shaking on an orbital shaker for 5 minutes. The cell plate was then left at room temperature for 20 minutes to stabilize the luminescence signal. Luminescence values were read with a SpectraMax Multilabel Microplate Reader (MD, 2104-0010A).
Data were analyzed using GraphPad Prism 5.0 software, and nonlinear S-curve regression was used to fit the data to derive dose-response curves from which IC50 values were calculated.
Cell Viability (%)=(Lumdrug to be tested−Lumculture medium control)/(Lumcell control−Lumculture medium control)×100%.

[2] = test system: H1975 cells (L858R and T790M double mutations); assay: Synergistic killing of tumor cells with AZD9291, H1975; format: cell-based, human; conditions: 72 hours
Experimental: (§10) Human lung cancer cells H1975 cells (L858R and T790M double mutations) and HCC827 cells were incubated in an incubator (37° C., 5% CO2) with 1640 medium plus 10% FBS (fetal bovine serum) and 1% P/S (penicillin/ streptomycin) for culture. In the assay of the compound, H1975 cells or HCC827 were plated in a 96-well plate (Corning) at a concentration of 3000 cells/195 μL per well, and the compound was serially diluted to 11 concentrations starting from 10 mM, and 4 μL of each concentration was added into 96 μL of 1640 cluture medium and diluted to form 25× compound, then 5 μL was took and added to 195 μL of cell culture medium (DMSO final concentration is 0.1%, v/v). After 72 hours of treatment, 35 μL of CellTiter-Blue® (purchased from Promega) was added. The fluorescent signal was measured on Flex Station3 (Molecular Devices) according to the operating procedure of the manual, and the IC50 value of inhibition on cell proliferation of the compound was calculated using GraphPad Prism5.0. The Chou-Talalay combination index method was used to calculate the effect of the combination. The combination index (Col) value 0.9≤CI≤1.1 is an additive effect, 0.8≤CI<0.9 is a low synergistic effect, 0.6≤CI<0.8 is a moderate synergistic effect, and 0.4 <CI<0.6 is highly synergistic, and 0.2≤CI<0.4 is strong synergistic.

[3] = test system: HCC827 cells (MET overexpression); assay: Synergistic killing of tumor cells with AZD9291, HCC827; format: cell-based, human; conditions: 72 hours
Experimental: as §10

[4] = Blood-brain distribution experiments in rats; format: in vivo; conditions: male SD rats
Experimental: The male SD rats were divided into groups, 12 in each group, and the compound of the Examples (10 mg/kg) was administered orally or by gavage. The animals were fasted overnight before the experiments, and the fasting time was from 10 hours before administration to 4 hours after administration. According to the previous pharmacokinetic data, the rats in the Example 1 group were killed at 0.25, 0.5, 2 and 6 hours after administration; the rats in the TPX-0022 group were killed at 0.25, 1, 4 and 8 hours after administration, and blood and brain tissue were collected. After the samples were processed, they were centrifuged at 4° C., 4000 rpm for 5 min, and the plasma was transferred to a centrifuge tube and stored at −80° C.until analysis. Plasma samples were extracted by protein precipitation, and the extract was analyzed by LC/MS/MS.

Chain of c-Met (P08581 25-1390): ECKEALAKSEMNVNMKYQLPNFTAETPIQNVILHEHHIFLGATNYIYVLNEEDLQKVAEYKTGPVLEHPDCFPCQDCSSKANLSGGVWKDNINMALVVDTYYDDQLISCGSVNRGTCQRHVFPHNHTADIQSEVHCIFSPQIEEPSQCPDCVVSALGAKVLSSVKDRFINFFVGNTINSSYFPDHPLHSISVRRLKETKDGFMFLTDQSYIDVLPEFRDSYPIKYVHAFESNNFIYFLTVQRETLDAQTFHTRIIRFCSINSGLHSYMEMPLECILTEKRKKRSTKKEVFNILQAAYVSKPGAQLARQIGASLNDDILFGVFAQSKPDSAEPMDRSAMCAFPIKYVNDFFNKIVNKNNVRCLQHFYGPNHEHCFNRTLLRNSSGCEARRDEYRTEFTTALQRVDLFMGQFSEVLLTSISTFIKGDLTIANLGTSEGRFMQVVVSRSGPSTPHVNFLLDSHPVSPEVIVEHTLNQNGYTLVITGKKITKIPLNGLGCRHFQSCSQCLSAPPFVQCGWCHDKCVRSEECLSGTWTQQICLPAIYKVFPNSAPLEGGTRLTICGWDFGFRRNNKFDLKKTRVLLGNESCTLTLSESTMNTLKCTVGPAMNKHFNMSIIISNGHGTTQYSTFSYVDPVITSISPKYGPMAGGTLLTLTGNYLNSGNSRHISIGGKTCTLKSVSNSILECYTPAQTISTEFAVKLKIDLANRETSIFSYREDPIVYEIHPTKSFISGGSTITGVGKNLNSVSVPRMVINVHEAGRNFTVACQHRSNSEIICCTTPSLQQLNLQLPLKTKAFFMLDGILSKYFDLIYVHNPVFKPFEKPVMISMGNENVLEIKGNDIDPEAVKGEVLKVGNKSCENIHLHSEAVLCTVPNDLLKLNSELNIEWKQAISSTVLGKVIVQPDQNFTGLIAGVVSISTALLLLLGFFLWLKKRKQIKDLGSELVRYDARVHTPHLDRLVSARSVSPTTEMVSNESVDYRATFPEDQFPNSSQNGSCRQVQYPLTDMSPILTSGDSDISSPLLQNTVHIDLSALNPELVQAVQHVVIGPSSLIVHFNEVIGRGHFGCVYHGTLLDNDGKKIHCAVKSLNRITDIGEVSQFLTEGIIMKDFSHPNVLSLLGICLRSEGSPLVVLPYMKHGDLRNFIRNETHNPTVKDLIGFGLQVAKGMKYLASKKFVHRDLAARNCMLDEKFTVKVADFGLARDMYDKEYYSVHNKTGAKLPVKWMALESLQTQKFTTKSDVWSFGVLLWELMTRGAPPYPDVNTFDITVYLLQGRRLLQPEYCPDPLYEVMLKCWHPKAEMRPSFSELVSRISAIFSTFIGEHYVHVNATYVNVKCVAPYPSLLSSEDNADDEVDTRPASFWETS

SMILES | IC50 (c-Met) [nM] | IC50 (CSF1R) [nM] | IC50 (SNU-5 cells) [nM] | IC50 (Ba/F3-TEL-CSF1R) [nM] | pharmacokinetic properties [1] | IC50 (SRC) [nM] | inhibitory effect on HCC827 cells (HCC827 cells) | combination effect with AZD9291 (Chou-Talalay combination index) [2] | combination effect with AZD9291 (Chou-Talalay combination index) [3] | Kp ([4]; Sprague-Dawley (SD), rat, brain / plasma, oral, 10 mg/kg gavage, 0.25, 0.5, 2 and 6 hours, read-out: drug brain/blood distribution ratio) | entry into brain tissue ([4]; 10 mg/kg gavage)
CCN1Cc2c(ccc(F)c2C#N)O[C@@H](C)COC(=O)c2c(N)nn3ccc1nc23 [Example 2, (S, 1^3E, 1^4E)-1^2-amino-2-ethyl-4^5-fluoro-6-methyl-9-oxo-5,8-dioxa-2-aza-1(5,3)-pyrazolo[1,5-a]pyrimidine-4(1,2)-benzocyclononane-4^6 carbonitrile] | 1.8 | 2.2 | 3.36 | 7 | better pharmacokinetic and pharmacokinetic properties | 30 |  |  |  |  | 
C[C@H]1COC(=O)c2cnn3ccc(nc23)N[C@H](C)c2cc(F)ccc2O1 [Comparative Compound 42, reference compound] | 85 | > 10000 |  |  |  | 289 |  |  |  |  | 
CCN1Cc2c(ccc(F)c2C#N)O[C@@H](C)COC(=O)c2cnn3ccc1nc23 [Example 1, (S, 1^3E, 1^4E)-2-ethyl-45-fluoro-6-methyl-9-oxo-5,8-dioxa-2-aza-1(5,3)-pyrazolo[1,5-a]pyrimidine-4(1,2)-benzocyclononane-4^6-carbonitrile] | 0.93 | 0.42 | 1.83 | 3.4 | better pharmacokinetic and pharmacokinetic properties | 15 | very obvious inhibitory effect | moderate to high synergistic effect | moderate to high synergistic effect | 1.16 to 6.4 | can enter the brain tissue
CCN1Cc2c(ccc(F)c2C#N)O[C@@H](C)CNC(=O)c2c(N)nn3ccc1nc23 [TPX-0022, reference compound] |  |  | 6.26 |  |  | 7.5 |  |  |  |  | 
